Literature values, collected in patent US20200253945A1, “DELAYED RELEASE DEFERIPRONE TABLETS AND METHODS OF USING THE SAME” (Chiesi Farmaceutici S.p.A., priority 2017, published 2020).

Experiments:
[1] = in vivo
[2] = patients who begin therapy with deferiprone

For `Cc1c(O)c(=O)ccn1C` [deferiprone, Deferiprone], the elimination half-life [1] is given as “about 2 hours” and the “patients with gastric distress” value [2] is given as 15-30%.
